Experimental data from patent US20100304422A1, “In-Vitro Model of the Transformation of Metaplasia to Neoplasia” (priority 2009, published 2010).

Key:
BAR-T cells [1] = assay: Real-time RT-PCR mRNA expression, normalized to β actin; assay type: cell-based, human; details: for molecular changes (mRNA), particularly transformation marker TC22: A alone (pH4) up to 34 weeks
Experimental: (§1) Cell line medium and cell culture—BAR-T cells were grown in special supplemented keratinocyte medium (KBM2) from Cambrex Bioscience (East Rutherford, N.J., USA), as per the protocol described by Jaiswal et al. Hydrochloric acid (A) was used to adjust the pH of the culture medium to experimental conditions. The bile acid, glycochenodeoxycholic acid, GCDA (Sigma, St. Louis, […]., USA), was diluted to optimum working concentration of 200 μM (B) with the culture medium adjusted to pH4 (A+B). 0.1×10^6 cells growing on six-well plates were incubated in A or A+B for 5 min in 24 h. For chronic exposure, cells were exposed for 5 min everyday to A only for up to 34 weeks and A+B for up to 84 weeks. No treatment was done on the day the cells were passed. The time was optimized from similar studies, showing that 5 min was sufficient for induction of signal transduction pathways regulating cellular machinery without cell damage. The cells were rinsed with phosphate buffered saline (PBS) before and after incubation with desired treatment medium. The control untreated cells were grown in parallel in the special medium as mentioned above at pH7.4. A portion of the cells were harvested every 4-6 weeks. Morphological Changes and Growth analysis—BAR-T cells that were exposed to A+B at various weeks were plated at 1×10^5 cells per well in 12 well plates and counted in triplicate using a Beckman Coulter Counter (Vi-CELL1.00). Cells were counted periodically and morphological changes were examined weekly. Foci assay: Cells were plated at 5×10^5 cells per 100 mm dishes (35). Untreated cells grown in parallel were also plated. Cells were grown for 4-5 weeks with regular medium changes beyond 100% confluency, fixed with 10% methanol, 10% acetic acid solution, and stained with 20% ethanol, 0.4% crystal violet for 5 min. Growth in soft agar: Each well of the six well plates was layered with base agar layer containing 0.8% agar in grown medium. […] Large (>1 mm) and small colonies (<1 mm) were visually identified, photographed and counted separately. […]

BAR-T cells [2] = assay: Morphological changes; assay type: cell-based, human
Experimental: as §1, with “The cells were rinsed with phosphate buffered saline (PBS) before and after incubation with desired treatment medium. The control untreated cells were grown in parallel in the special medium as mentioned above at pH7.4. A portion of the cells were harvested every 4-6 weeks.” left out, “weekly.” for “weekly. Foci assay: Cells were plated at 5×10^5 cells per 100 mm dishes (35). Untreated cells grown in parallel were also plated. Cells were grown for 4-5 weeks with regular medium changes beyond 100% confluency, fixed with 10% methanol, 10% acetic acid solution, and stained with 20% ethanol, 0.4% crystal violet for 5 min. Growth in soft agar: Each well of the six well plates was layered with base agar layer containing 0.8% agar in grown medium.”

| SMILES | molecular changes (mRNA), particularly transformation marker TC22 (BAR-T cells [1]) | molecular changes (mRNA), particularly transformation marker TC22 (BAR-T cells [1]; listed as Acid (pH4)) | P53 expression (BAR-T cells [1]; A alone up to 34 weeks) | morphological changes (BAR-T cells [2]; chronic exposure to A alone, up to 34 weeks) | effect on BAR-T cells (BAR-T cells [2]; B alone up to 6 weeks, initial study) |
| --- | --- | --- | --- | --- | --- |
| Cl [A, Hydrochloric acid] | did not show the above molecular changes | remained mostly unchanged | minor increase | did not show any morphological changes | – |
| CC(CCC(=O)NCC(=O)O)C1CCC2C3C(O)CC4CC(O)CCC4(C)C3CCC12C (centres unmarked) [B, glycochenodeoxycholic acid, reference compound] | – | – | – | – | no appreciable effect |
